We go through 19 compounds from patent US5652366A, “DI (1R)-(-)camphosulfonic acid) salt, preparation thereof and use thereof” (Rhone-Poulenc Rorer Pharmaceuticals Inc., priority 1995, dated 1997).

Read-outs that look alike come from different tables or passages of the source.

One assay has as its system rat adipocytes. The experiment in a line: In vitro lipolysis assay in rat adipocytes (glycerol production). The format is cell-based. As to conditions: for inhibition at 0.1 µM: versus positive control; for EC50: read-out: EC50 (50% inhibition of glycerol production). How it is done: Adipose tissue is removed from anesthetized rats and rinsed twice in incubation medium (2.09 g sodium bicarbonate and 0.04 g EDTA, disodium salt, in 1 L Krebs buffer). Each rat (300-350 g) yields approximately 4 ml of adipose tissue. The adipose tissue (35 ml) is cut into small pieces with scissors and washed with incubation medium (50 ml). The mixture is poured into the barrel of a 50 ml syringe to which is attached a short piece of clamped tubing instead of a needle. The aqueous phase is allowed to drain. A second wash with incubation medium is passed through the syringe. The tissue is added to 50 ml of collagenase solution (collagenase(90 mg), bovine serum albumin (BSA) (500 mg), and 0.1 M calcium chloride solution (1 ml), in incubation medium (50 ml)) in a 1 L bottle. The mixture is shaken in an environmental at 37° C. for about 60 minutes under an atmosphere of 95% oxygen/5% carbon dioxide to effect digestion of the tissue. The dispersed cells are poured through 2 layers of cheese cloth into a 100 ml plastic beaker. The undigested clumps in the cloth are rinsed once with incubation medium (20 ml). The cells in the beaker are centrifuged in 2 plastic tubes for 30 seconds at room temperature at 300 rpm. The aqueous phase is aspirated from beneath the loosely packed layer of floating fat cells and discarded. The adipocytes are gently poured into a 250 ml plastic beaker containing 100 ml of rinse solution (1 g BSA per 100 ml incubation medium). After gentle stirring the centrifugation step is repeated. Another wash with rinse solution follows. The cells are pooled and their volume is estimated with a graduated cylinder. The adipocytes are diluted in twice their volume of assay buffer (incubation medium (120 ml), BSA (1.2 g), pyruvic acid (13 mg)).
The assay is performed in 20 ml plastic scintillation vials and the total assay volume is 4.2 ml. Assay buffer (2.5 ml), diluted adipocytes (1.5 ml), and a solution of the compound to be tested (12.3 μL) adenosine agonist (12.3 μl; varying concentration) is incubated in the environmental shaker for 15 minutes, then the reaction is started with norepinephrine solution (41.2 μL) (10 nM, in a carrier solution containing water (100 ml), BSA (4 mg), and 0.1 M EDTA (20 I. LL))and adenosine deaminase (1 μg/ml, 41.2 μl). After sixty minutes in the shaker the reaction is terminated by putting the vials on ice. […] The hard lipid layer is removed by aspiration and the aqueous layer is assayed for glycerol (400 μl of sample). The positive control is done in the absence of any adenosine agonist, substituting water in place of the solution to be tested.

The test system of the next assay is swine coronary arteries. Description: In vitro vasorelaxation in isolated swine coronary arteries (PGF2α-contracted rings). The format is cell-based. To be noted: Sus scrofa; for EC50: Table II; for IC50: read-out: Vasorelaxation (IC50). As to the method: Swine coronary arteries were obtained from a local slaughter house, dissected carefully and cleaned of fat, blood and adhering tissue. Rings approximately 2-3 mm wide were cut and transferred to water-jacketed tissue baths (10 ml) filled with warm (37° C.), oxygenated (O2 /CO2 :95%/5%) Krebs-Henseleit buffer and mounted on L-shaped hooks between stainless steel rods and a force transducer. […] Rings were equilibrated for 90 minutes with frequent buffer changes at a resting tension of 5 g In order to assure optimal tension development, arterial rings were primed twice with 36 mM KCl and once with 10 μm. PGF2α, before being exposed to 3 μM PGF2α. […] Tension achieved with 3 μM PGF2α was considered .equivalent to 100%; all other values were expressed as a percentage of that maximum.

The subject of assay [1] is normotensive anesthetized rat. Description: In vivo mean arterial pressure and heart rate in normotensive anesthetized rat. To be noted: iv. As to the method: Normotensive rats were anesthetized with sodium pentobarbital (50 mg/kg, j.p.) and placed on a heated surgical table. Cannulas were inserted into the femoral artery and […] to allow the measurement of arterial pressure and to facilitate the intravenous administration of test compounds. The animals was allowed to equilibrate for 10 minutes after surgery. Mean arterial pressure was continuously measured and recorded and heart rate was monitored using the arterial pressure pulse to trigger a cardiotachometer. After baseline parameters were established and recorded, increasing doses (1, 3, 10, 30, 100, 300 and 1000 μg/kg) of the compound of the invention to be tested were administered intravenously. Maximal changes in the cardiovascular parameters were observed after each dose of the adenosine agonist. Only one compound was administered per rat.

Where [2] appears, read: Rattus norvegicus, Adipocyte, read-out: % Inhibition of glycerol production.
Setting [3] is: read-out: Vasorelaxation in Swine Coronary Artery/IC50 (μM), 50% reduction in tension, 3 μM PGF2α.
Setting [4] is: dose lowering heart rate by 25%, read-out: Blood Press/Heart Rate Anesthetized Rat HR/ED25.
Setting [5] is: dose lowering mean arterial pressure by 25%, read-out: Blood Press/Heart Rate Anesthetized Rat MAP/ED25.
Setting [6] is: 50% reduction in tension, 3 μM PGF2α, read-out: Vasorelaxation in Swine Coronary Artery/IC50.
The mark [7] stands for this setting: Rattus norvegicus, Adipocyte, unit nM in cell.

For orientation: inhibition means the relative decrease from the control value, in per cent. As for `CCNC(=O)[C@H]1C[C@@H](n2cnc3c(N[C@H](CC)Cc4ccc(Cl)s4)ccnc32)[C@H](O)[C@@H]1O` [Example 41, [1S-[1α,2β,3β,4α]]-4-[7-[[2-(5-chloro-2-thienyl)-1-ethylethyl]amino]-3 H-imidazo[4,5-b]pyridin-3-yl]-N-ethyl-2,3-dihydroxycyclopentane-carboxamide], the inhibition at 0.1 µM with rat adipocytes (setting [2]) was 88%.
Regarding `CO[C@@H]1[C@H](O)[C@@H](CO)O[C@H]1n1cnc2c(N[C@@H]3CC=CC[C@H]3c3cccs3)ncnc21` (relative stereo) [Example 49, N^6-[trans-5-(2-thienyl)cyclohex-1-en-4-yl]-2'-O-methyladenosine], the EC50 with swine coronary arteries (setting [3]) stood at 9.81 µM; in the assay on rat adipocytes (Rattus norvegicus, Adipocyte) it was 18.6 nM. The inhibition at 0.1 µM with rat adipocytes (setting [2]) was found to be 85%.
For the compound `CO[C@@H]1[C@H](O)[C@@H](CO)O[C@H]1n1cnc2c(N[C@H](C)Cc3ccc(Cl)s3)ncnc21` [Example 48, N^6-[2-(5-chloro-2-thienyl)-(1R)-1-methylethyl]-2'-O-methyladenosine], in the assay on rat adipocytes (Rattus norvegicus, Adipocyte), the EC50 is 1.86 nM. Moreover, the inhibition at 0.1 µM in the assay on rat adipocytes (setting [2]) was 88%.
With `CCNC(=O)[C@H]1C[C@@H](n2cnc3c(N[C@H](C)Cc4ccc(Cl)s4)ncnc32)[C@H](OC(=O)OC)[C@@H]1OC(=O)OC` [Example 42, (2S)-2α,3α-bis-methoxycarbonyloxy-4β-[N6-[2-(5-chloro-2-thienyl)-(1R)-1-methylethyl]amino-9-adenyl]cyclopentane-1β-N-ethylcarboxamide], the EC50 in the assay with swine coronary arteries (setting [3]) came to 2.44 µM.
For the compound `OC[C@H]1O[C@@H](n2cnc3c(N[C@@H]4CC=CC[C@H]4c4ccsc4)ncnc32)[C@H](O)[C@@H]1O` (relative stereo) [Example 8, N^6-[trans-2-(thiophen-3-yl)-cyclohex-4-en-1-yl]adenosine], the ED25 in assay [1] (setting [4]) turned out to be 0.023 mg/kg; in assay [1] (setting [5]), 0.01 mg/kg.
Regarding `CO[C@@H]1[C@H](O)[C@@H](CO)O[C@H]1n1cnc2c(N[C@H](C)Cc3sccc3Cl)ncnc21` [Example 47, N^6-[2-(3-chloro-2-thienyl)-(1R)-1-methylethyl]-2'-O-methyladenosine], the EC50 with swine coronary arteries (setting [6]) was determined as 5.7 µM; in the assay on rat adipocytes (setting [7]) it was 0.63 nM. Further, the inhibition at 0.1 µM with rat adipocytes (setting [2]) is 94%.
For the compound `CCNC(=O)[C@H]1C[C@@H](n2cnc3c(NCCc4nccs4)ncnc32)[C@H](O)[C@@H]1O` (relative stereo) [Example 25, (±)-N^6-[2-(2"-thiazolyl)ethyl]-carbocyclic adenosine-5'-N-ethyl carboxamide], the EC50 in the assay on swine coronary arteries (setting [6]) was found to be 0.64 µM.
The same measure, in the same setting: for `CCNC(=O)[C@H]1C[C@@H](n2cnc3c(N[C@H](C)Cc4ccc(Cl)s4)[n+]([O-])cnc32)[C@H](O)[C@@H]1O` [Example 35, (2S)-2α,3α-dihydroxy-4β-[N6-[2-(5-chloro-2-thienyl)-(1R)-1-methylethyl]amino-9-adenyl]cyclopentane-1β-N-ethylcarboxamide-N^1-oxide] the value was 3.3 µM.
Take `CCNC(=O)[C@H]1O[C@@H](n2cnc3c(NC4CC=CCC4c4cccs4)ncnc32)[C@H](O)[C@@H]1O` (single isomer, unassigned) [Example 5, N6-[trans-2-(thiophen-2-yl)cyclohex-4-en-l-yl]adenosine-5'-N-ethylcarboxamide]: the EC50 in the assay with swine coronary arteries (setting [3]) amounted to 0.068 µM.
Still for that read-out and setting: as for `CCNC(=O)[C@H]1C[C@@H](n2cnc3c(N[C@H](C)Cc4ccc(Cl)s4)ncnc32)[C@@H]2OC(OCC)O[C@@H]21` (stereo partly drawn) [Example 43, (2S)-2α,3α-dihydroxy-4β-[N6-[2-(5-chloro-2-thienyl)-(1R)-1-methylethyl]amino-9-adenyl]cyclopentane-1β-N-ethylcarboxamide ethoxymethylene acetal], the figure is 7.83 µM.
Consider `CCNC(=O)[C@H]1C[C@@H](n2cnc3c(N[C@H](C)Cc4cccs4)ccnc32)[C@H](O)[C@@H]1O` [Example 40, [1S-[1α,2β,3β,4α(S*)]]-4-[7-[[2-(2-thienyl)-1-methylethyl]amino]-3 H-imidazo[4,5-b]pyridin-3-yl]-N-ethyl-2,3-dihydroxycyclopentane-carboxamide], for which, in the assay with swine coronary arteries (setting [6]), the EC50 is 0.283 µM.
By IC50 is commonly meant the point on the concentration scale where inhibition reaches its midpoint. For the compound `CCNC(=O)[C@H]1O[C@@H](n2cnc3c(N)nc(NCCc4ccc(CCC(=O)O)cc4)nc32)[C@H](O)[C@@H]1O` [CGS21680, reference compound], the IC50 in the assay on swine coronary arteries was 0.08 µM. The inhibition at 1 µM in the assay with rat adipocytes (setting [2]) was determined as 0%. Moreover, the antilipolytic activity entry in the assay with rat adipocytes (in words) is listed as “do not exhibit antilipolytic activity”.
In the case of `CCNC(=O)[C@H]1C[C@@H](n2cnc3c(NC(Cc4cccs4)C(C)C)ccnc32)[C@H](O)[C@@H]1O` (stereo partly drawn) [Example 38, [1S-[1α,2β,3β,4α]]-4-[7-[[2-(2-thienyl)-1-isopropylethyl]amino]-3 H-imidazo[4,5-b]pyridin-3-yl]-N-ethyl-2,3-dihydroxycyclopentanecarboxamide], in the assay on swine coronary arteries (setting [6]), the EC50 was 0.47 µM.
Consider `CCNC(=O)[C@H]1C[C@@H](n2cnc3c(N[C@H](C)Cc4ccc(Cl)s4)ncnc32)[C@@H]2OC(=S)O[C@@H]21` [Example 46, (2S)-2α,3α-dihydroxy-4β-[N6-[2-(5-chloro-2-thienyl)-(1R)-1-methylethyl]amino-9-adenyl]cyclopentane-1β-N-ethylcarboxamide-2,3-thiocarbonate], for which the EC50 in the assay on swine coronary arteries (setting [3]) was determined as 3.52 µM; with rat adipocytes (setting [7]), 4 nM.
As for `CCNC(=O)[C@H]1C[C@@H](n2cnc3c(N[C@H](C)Cc4ccc(Cl)s4)ncnc32)[C@H](OC(=O)NC)[C@@H]1OC(=O)NC` [Example 45, (2S)-2α,3α-bis-methylcarbamoyloxy-4β-[N6-[2-(5-chloro-2-thienyl)-(1R)-1-methylethyl]amino-9-adenyl]cyclopentane-1β-N-ethylcarboxamide], the EC50 in the assay with swine coronary arteries (setting [6]) was 4.1 µM.
Take `C[C@H](Cc1ccccc1)Nc1ncnc2c1ncn2[C@@H]1O[C@H](CO)[C@@H](O)[C@H]1O` [R-PIA, R-phenylisopropyladenosine, reference compound]: the IC50 in the assay with swine coronary arteries amounted to 0.76 µM. Besides, the EC50 with rat adipocytes (Rattus norvegicus, Adipocyte) is 1 nM.
Consider `CCNC(=O)[C@H]1O[C@@H](n2cnc3c(N)ncnc32)[C@H](O)[C@@H]1O` [NECA, N-ethylcarboxamidoadenosine, reference compound], for which the EC50 in the assay with rat adipocytes (Rattus norvegicus, Adipocyte) stood at 2.5 nM.
Turning to `CCNC(=O)[C@H]1C[C@@H](n2cnc3c(NCCc4cccs4)ccnc32)[C@H](O)[C@@H]1O` (relative stereo) [Example 30, (±)-N6-[1-(thiopheny-2-yl)ethan-2-yl]-N'-1-deazaaristeromycin-5'-N-ethyl carboxamide], the EC50 in the assay on swine coronary arteries (setting [3]) was 12.1 µM. The ED25 in assay [1] (setting [4]) is greater than 0.01 mg/kg; in assay [1] (setting [5]), 0.006 mg/kg.
Consider `CCNC(=O)[C@H]1C[C@@H](n2cnc3c(NC(CC)Cc4sccc4Cl)ccnc32)[C@H](O)[C@@H]1O` (stereo partly drawn) [Example 37, [1S-[1α,2β,3β,4α]]-4-[7-[[2-(3-chloro-2-thienyl)-1-ethylethyl]amino]-3 H-imidazo[4,5-b]pyridin-3-yl]-N-ethyl-2,3-dihydroxycyclopentane-carboxamide], for which the EC50 with swine coronary arteries (setting [6]) was 0.45 µM.
